From patent US12599583B2, “Small molecule GRB2 stabilizers for Ras map kinase inhibition” (Board of Regents, The University of Texas System, priority 2019, dated 2026)

Columns and labels:
[1] = tested on: MDA-MB-231 triple negative breast cancer cells with G13D k-Ras mutation; experiment: EGF induced MAPK activation in MDA-MB-231 cells; assay type: cell-based
GRB2 [2] = target: T1, GRB2 (Homo sapiens, UniProt P62993); experiment: ITC binding to GRB2; conditions: read-out: Kd, binding to GRB2 by ITC
T1 sequence (P62993 whole entry): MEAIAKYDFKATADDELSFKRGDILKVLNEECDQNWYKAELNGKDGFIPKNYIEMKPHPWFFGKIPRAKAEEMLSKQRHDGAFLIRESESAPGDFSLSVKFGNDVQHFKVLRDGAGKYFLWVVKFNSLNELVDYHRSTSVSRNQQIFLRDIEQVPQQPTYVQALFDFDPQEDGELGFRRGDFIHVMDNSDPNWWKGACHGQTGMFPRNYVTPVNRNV
Description: Validation of in vitro binding of GRB001 to GRB2 with ITC as an alternative technique. […] GRB001 is able to bind GRB2 in two different conformations as reflected by the energy signature (inset).
FIGS. 14A-14C show ITC binding isotherm of GRB001 binding to GRB2 as in FIG. 4 (FIG. 14A).

MDA-MB-231 TNBC = experiment: apoptosis in MDA-MB-231 tumor cells; assay type: cell-based
Description: GRB001 specifically kills triple negative breast cancer cells through caspase 3/7 mediated apoptosis (FIG. 8B).

[3] = tested on: RTK induced Ras signaling; experiment: EGF and FGF induced MAPK activation in multiple cancer cell-lines; assay type: cell-based
Description: GRB001 inhibits RAS/ERK activation while EGFR is fully active (FIG. 6D, top panel and the corresponding active EGFR in bottom panel)

GRB2 [4] = target: T1, GRB2; experiment: GRB001 binding to GRB2 by MST; conditions: read-out: Kd, in vitro binding to GRB2 by MST
Experimental: In vitro binding of GRB001 to GRB2 with 50 μM Kd.

GRB2 [5] = target: T1, GRB2; experiment: fluorescence anisotropy assay measuring GRB2 dimerization; assay type: biochemical; conditions: 100 nM Atto488 labeled GRB2; NB = No Binding (inability to induce GRB2 dimerization); read-out: EC50 anisotropy, compound induced GRB2 dimerization
Experimental: FIGS. 16A & 16B show fluorescence anisotropy assay data measuring GRB2 dimerization. 100 nM Atto488 labeled GRB2, which is below its dimer forming concentration, was used to identify compounds that induce dimerization. […] Note that NB represent compounds inability to induce GRB2 dimerization.
GRB2 dimerization was measured by fluorescence anisotropy assay. 100 nM Atto488 labeled GRB2, which is below its dimer forming concentration, was used to identify compounds that induce dimerization. […] Note that NB represent compounds inability to induce GRB2 dimerization.

[6] = tested on: A549 (lung adenocarcinoma) cells with G12S KRAS mutation; experiment: EGF induced MAPK activation in A549 cells; assay type: cell-based
OVCAR8 cells = experiment: EGF induced ERK activation in OVCAR8 cells; assay type: cell-based
OVCAR5 = experiment: EGF induced ERK activation in OVCAR5 cells; assay type: cell-based
A549 lung cancer cells = experiment: apoptosis in A549 tumor cells; assay type: cell-based
GRB2 dimer interface = GRB2 dimer interface (Homo sapiens, UniProt P62993); experiment: GRB2 monomer dimer equilibrium measurement; assay type: biochemical; conditions: presence of 100 μM GRB001
Chain of GRB2 dimer interface (P62993 whole entry): as above
Experimental: Measurements of GRB2 monomer dimer equilibrium in the absence (lower, darker line) or presence of 100 μM GRB001 (upper, lighter line).

O=C1Cc2cc(NC(=O)Nc3ccc(F)cc3)ccc2N1 [GRB001]
inhibition of EGF induced MAPK activation [1]: inhibits RTK induced Ras signaling | Kd (GRB2 [2]): 37 µM | induction of apoptosis (MDA-MB-231 TNBC): induces apoptosis | inhibition of EGF and FGF induced MAPK activation [3]: inhibits EGF and FGF induced MAPK activation | Kd (GRB2 [4]): 50 µM | EC50 (GRB2 [5]): 49.7 µM | inhibition of EGF induced MAPK activation [6]: inhibits RTK induced Ras signaling | inhibition of EGF induced ERK activation (OVCAR8 cells): inhibition of EGF induced ERK activation | inhibition of EGF induced ERK activation (OVCAR5): inhibition of EGF induced ERK activation | induction of apoptosis (A549 lung cancer cells): induces apoptosis | effect on GRB2 monomer dimer equilibrium (GRB2 dimer interface): induce a Kd shift favoring dimerization
